Source: ChEMBL document CHEMBL3991601, “The target landscape of clinical kinase drugs” (Science, 2017)
Active and inactive are the calls of the source.

Assays:
[1] = target: Tyrosine-protein kinase ABL2 (Homo sapiens, UniProt P42684)
Adenosine kinase = Adenosine kinase (Homo sapiens, UniProt P55263)
[2] = target: BMP-2-inducible protein kinase (Homo sapiens, UniProt Q9NSY1)
[3] = target: Casein kinase I isoform gamma-1 (Homo sapiens, UniProt Q9HCP0)
[4] = target: T1, Delta(24)-sterol reductase (Homo sapiens, UniProt Q15392)
T1 sequence (Q15392 whole entry): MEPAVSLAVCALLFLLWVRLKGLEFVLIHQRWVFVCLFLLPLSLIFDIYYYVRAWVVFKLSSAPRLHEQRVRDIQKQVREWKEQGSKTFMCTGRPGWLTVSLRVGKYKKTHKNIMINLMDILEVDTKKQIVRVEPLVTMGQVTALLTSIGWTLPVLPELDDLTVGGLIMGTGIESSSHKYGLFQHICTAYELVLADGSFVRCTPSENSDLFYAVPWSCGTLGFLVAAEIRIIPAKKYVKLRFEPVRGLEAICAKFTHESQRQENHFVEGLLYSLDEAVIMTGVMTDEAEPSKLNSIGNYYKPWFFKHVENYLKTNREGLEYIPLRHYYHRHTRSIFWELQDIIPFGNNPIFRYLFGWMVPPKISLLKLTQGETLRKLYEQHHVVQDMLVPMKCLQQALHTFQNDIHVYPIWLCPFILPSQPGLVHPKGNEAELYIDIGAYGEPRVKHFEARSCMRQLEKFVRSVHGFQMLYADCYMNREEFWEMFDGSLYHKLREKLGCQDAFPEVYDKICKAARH

[5] = target: MAP kinase-activated protein kinase 2 (Homo sapiens, UniProt P49137)
MAP kinase-activated protein kinase 2, sequence (P49137 whole entry): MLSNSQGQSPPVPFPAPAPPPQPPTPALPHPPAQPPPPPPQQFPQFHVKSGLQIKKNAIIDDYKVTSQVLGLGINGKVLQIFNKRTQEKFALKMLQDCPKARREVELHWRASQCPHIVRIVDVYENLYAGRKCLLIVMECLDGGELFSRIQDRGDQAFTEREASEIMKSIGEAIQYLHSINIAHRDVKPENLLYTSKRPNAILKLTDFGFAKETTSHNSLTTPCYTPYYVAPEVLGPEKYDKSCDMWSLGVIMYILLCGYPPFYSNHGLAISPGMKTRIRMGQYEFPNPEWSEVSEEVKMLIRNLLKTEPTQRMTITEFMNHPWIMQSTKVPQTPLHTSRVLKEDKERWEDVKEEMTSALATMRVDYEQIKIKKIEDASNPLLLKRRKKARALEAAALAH

[6] = target: T2, Serine/threonine-protein kinase NLK (Homo sapiens, UniProt Q9UBE8)
T2 sequence (Q9UBE8 whole entry): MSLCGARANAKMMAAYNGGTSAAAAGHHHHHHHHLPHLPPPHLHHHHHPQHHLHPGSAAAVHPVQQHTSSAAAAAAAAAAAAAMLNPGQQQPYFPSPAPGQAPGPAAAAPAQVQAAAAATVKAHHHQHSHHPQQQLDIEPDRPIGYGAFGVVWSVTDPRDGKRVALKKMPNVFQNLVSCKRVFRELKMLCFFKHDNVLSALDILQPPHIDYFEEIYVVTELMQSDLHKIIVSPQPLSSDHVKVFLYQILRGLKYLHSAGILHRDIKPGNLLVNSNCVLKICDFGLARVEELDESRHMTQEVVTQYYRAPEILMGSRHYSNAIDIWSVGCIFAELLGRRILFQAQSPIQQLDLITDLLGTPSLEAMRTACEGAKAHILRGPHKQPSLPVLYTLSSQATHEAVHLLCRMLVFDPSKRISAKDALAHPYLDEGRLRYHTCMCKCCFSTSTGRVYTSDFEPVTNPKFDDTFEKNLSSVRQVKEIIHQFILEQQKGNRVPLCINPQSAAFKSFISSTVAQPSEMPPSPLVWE

[7] = target: T3, NUAK family SNF1-like kinase 2 (Homo sapiens, UniProt Q9H093)
T3 sequence (Q9H093 whole entry): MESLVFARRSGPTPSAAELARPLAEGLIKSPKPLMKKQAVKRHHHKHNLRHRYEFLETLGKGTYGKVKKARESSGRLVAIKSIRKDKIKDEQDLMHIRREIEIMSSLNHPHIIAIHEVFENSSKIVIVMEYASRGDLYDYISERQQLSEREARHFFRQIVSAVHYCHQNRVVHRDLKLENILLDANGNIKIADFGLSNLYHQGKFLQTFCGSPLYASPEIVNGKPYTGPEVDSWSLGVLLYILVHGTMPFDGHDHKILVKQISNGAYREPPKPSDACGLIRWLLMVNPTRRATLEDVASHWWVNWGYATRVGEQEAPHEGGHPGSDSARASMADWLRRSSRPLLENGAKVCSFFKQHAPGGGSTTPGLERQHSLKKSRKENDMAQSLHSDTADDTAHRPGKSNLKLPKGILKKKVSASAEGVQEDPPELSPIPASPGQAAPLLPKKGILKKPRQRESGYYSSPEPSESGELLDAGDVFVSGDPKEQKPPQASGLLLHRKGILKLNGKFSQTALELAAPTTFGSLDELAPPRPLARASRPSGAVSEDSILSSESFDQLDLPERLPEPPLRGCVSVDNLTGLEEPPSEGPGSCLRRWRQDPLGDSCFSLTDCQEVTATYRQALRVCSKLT

[8] = target: Protein kinase C delta type (Homo sapiens, UniProt Q05655)
Protein kinase C delta type, sequence (Q05655 whole entry): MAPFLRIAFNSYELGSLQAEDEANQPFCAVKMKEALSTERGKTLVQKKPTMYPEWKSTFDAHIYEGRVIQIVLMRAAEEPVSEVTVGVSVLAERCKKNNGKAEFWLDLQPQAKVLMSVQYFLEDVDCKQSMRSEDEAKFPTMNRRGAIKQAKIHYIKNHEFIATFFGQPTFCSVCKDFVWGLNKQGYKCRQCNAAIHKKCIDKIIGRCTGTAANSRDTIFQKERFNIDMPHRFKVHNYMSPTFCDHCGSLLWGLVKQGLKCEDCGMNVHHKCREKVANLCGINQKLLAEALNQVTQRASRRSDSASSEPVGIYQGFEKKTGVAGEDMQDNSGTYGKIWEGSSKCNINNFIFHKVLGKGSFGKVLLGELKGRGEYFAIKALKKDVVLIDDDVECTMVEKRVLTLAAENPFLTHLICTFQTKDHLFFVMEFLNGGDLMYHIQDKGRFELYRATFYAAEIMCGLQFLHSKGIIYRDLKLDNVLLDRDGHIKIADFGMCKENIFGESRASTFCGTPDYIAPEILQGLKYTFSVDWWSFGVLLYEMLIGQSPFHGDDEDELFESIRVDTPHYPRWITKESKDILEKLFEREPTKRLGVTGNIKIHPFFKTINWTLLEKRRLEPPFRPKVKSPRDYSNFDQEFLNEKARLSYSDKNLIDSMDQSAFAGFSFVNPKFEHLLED

[9] = target: T4, Ras-related protein Rab-27A (Homo sapiens, UniProt P51159)
T4 sequence (P51159 whole entry): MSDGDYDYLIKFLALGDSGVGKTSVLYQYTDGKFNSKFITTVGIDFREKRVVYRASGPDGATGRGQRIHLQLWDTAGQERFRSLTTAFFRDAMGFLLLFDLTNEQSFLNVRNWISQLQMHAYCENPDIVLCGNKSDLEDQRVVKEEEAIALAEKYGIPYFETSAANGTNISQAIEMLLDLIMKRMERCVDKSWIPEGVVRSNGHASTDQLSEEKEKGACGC

[10] = target: T5, Tyrosine-protein kinase Tec (Homo sapiens, UniProt P42680)
T5 sequence (P42680 whole entry): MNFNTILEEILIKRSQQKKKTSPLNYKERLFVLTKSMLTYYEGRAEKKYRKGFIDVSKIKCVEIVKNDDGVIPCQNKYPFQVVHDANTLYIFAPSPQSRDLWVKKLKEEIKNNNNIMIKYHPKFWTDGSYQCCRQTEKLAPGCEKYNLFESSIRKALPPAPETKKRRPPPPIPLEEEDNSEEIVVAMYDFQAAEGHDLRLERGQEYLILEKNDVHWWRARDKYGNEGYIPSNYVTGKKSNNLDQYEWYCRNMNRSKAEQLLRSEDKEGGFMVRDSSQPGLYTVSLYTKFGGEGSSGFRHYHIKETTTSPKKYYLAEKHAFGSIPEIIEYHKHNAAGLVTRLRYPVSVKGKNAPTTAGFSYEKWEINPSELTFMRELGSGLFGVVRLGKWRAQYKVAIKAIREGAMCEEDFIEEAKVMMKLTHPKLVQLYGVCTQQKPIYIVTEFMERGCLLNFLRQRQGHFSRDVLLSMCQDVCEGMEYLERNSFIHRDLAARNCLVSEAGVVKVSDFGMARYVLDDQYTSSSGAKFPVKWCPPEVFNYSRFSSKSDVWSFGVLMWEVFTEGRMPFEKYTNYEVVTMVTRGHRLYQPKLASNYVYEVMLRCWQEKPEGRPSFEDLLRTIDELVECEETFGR
Note: in the data inactive means no Kd found up to 30 µM.

Tyrosine-protein kinase ABL2, sequence (P42684 whole entry): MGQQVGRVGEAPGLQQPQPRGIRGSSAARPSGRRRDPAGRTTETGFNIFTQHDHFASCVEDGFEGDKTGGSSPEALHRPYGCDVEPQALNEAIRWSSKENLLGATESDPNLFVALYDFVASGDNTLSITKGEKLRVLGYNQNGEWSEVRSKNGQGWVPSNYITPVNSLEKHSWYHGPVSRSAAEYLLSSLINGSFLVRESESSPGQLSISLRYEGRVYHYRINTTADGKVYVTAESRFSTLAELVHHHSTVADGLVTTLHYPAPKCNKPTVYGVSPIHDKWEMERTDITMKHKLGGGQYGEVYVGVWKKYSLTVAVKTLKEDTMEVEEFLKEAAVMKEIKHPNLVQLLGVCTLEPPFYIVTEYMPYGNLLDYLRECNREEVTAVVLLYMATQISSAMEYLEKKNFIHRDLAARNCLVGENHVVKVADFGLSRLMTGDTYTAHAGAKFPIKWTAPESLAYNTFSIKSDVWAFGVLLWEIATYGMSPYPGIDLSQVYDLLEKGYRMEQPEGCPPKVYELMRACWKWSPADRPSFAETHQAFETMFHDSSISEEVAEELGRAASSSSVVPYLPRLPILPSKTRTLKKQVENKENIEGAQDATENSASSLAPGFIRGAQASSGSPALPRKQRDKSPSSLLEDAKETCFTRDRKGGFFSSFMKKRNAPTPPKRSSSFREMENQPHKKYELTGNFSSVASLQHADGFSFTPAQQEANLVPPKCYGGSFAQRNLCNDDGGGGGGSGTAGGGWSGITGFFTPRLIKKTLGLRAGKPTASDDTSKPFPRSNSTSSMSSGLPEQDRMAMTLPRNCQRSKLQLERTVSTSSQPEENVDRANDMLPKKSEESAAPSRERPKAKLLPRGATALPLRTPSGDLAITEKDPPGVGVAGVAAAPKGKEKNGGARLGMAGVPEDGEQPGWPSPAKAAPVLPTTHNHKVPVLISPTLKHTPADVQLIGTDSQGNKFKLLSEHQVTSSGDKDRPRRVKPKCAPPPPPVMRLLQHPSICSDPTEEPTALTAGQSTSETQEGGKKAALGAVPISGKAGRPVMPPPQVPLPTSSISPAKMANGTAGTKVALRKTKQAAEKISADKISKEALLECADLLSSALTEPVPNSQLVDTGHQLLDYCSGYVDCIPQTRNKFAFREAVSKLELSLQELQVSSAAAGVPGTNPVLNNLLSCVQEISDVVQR
Adenosine kinase, sequence (P55263 whole entry): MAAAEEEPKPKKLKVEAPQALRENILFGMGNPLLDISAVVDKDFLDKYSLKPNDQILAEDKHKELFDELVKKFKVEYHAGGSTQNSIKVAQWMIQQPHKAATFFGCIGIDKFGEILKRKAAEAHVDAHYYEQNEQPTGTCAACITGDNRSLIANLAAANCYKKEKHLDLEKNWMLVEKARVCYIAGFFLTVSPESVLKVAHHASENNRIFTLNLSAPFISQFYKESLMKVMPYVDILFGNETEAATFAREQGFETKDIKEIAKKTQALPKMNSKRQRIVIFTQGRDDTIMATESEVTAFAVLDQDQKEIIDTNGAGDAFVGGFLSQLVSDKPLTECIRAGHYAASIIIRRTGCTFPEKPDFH
Casein kinase I isoform gamma-1, sequence (Q9HCP0 whole entry, canonical isoform): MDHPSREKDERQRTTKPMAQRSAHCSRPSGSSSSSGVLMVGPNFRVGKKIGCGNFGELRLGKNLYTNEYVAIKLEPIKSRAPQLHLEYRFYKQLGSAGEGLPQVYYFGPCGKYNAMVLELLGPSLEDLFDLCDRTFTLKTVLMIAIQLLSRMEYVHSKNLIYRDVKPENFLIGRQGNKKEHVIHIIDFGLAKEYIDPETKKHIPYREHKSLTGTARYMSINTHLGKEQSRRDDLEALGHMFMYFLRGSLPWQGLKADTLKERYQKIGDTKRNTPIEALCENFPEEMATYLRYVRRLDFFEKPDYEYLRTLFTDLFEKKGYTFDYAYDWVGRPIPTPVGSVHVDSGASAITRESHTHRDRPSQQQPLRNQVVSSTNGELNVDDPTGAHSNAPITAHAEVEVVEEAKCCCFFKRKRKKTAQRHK
BMP-2-inducible protein kinase, sequence (Q9NSY1 whole entry, canonical isoform): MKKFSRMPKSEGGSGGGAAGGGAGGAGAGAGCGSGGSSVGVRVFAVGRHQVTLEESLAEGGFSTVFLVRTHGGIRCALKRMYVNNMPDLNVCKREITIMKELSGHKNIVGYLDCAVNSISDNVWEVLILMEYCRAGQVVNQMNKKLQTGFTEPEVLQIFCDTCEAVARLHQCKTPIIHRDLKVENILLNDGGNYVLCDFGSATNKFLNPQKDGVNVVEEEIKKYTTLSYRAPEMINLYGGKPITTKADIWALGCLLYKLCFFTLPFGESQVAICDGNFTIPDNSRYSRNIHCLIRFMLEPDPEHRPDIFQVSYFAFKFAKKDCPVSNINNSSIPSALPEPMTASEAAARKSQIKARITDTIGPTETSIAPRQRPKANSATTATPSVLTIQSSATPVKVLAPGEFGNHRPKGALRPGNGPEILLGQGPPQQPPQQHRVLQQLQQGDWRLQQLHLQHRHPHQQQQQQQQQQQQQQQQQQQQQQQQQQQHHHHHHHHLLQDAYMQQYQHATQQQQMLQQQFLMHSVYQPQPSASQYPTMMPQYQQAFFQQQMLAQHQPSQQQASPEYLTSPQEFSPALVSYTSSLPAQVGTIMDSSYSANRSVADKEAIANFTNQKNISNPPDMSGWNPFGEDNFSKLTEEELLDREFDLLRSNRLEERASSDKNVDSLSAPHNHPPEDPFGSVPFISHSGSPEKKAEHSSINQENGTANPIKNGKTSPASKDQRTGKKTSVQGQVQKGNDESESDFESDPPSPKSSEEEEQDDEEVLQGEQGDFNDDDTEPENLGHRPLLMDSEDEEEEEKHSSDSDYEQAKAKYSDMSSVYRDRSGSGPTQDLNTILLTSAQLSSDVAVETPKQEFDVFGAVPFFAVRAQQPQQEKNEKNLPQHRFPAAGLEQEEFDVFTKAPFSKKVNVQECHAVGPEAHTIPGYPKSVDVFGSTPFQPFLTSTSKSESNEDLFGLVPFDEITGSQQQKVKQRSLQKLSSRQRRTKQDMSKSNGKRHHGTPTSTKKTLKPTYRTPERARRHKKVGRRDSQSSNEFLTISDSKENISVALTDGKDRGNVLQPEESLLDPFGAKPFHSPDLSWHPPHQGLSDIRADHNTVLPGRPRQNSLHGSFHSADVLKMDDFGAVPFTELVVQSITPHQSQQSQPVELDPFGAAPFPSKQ

Kd [1]	Kd (Adenosine kinase)	Kd [2]	Kd [3]	Kd [4]	Kd [5]	Kd [6]	Kd [7]	Kd [8]	Kd [9]	Kd [10]	Structure (SMILES)
0.077 µM (active)	> 30 µM (inactive)	> 30 µM (inactive)	> 30 µM (inactive)	> 30 µM (inactive)	> 30 µM (inactive)	> 30 µM (inactive)	> 30 µM (inactive)	> 30 µM (inactive)	> 30 µM (inactive)	0.707 µM (active)	O=C(O)[C@]1(Cc2cccc(Nc3nccs3)n2)CC[C@@H](Oc2cccc(Cl)c2F)CC1 [MK-5108]
> 30 µM (inactive)	> 30 µM (inactive)	> 30 µM (inactive)	> 30 µM (inactive)	> 30 µM (inactive)	> 30 µM (inactive)	> 30 µM (inactive)	> 30 µM (inactive)	> 30 µM (inactive)	> 30 µM (inactive)	> 30 µM (inactive)	CNC(=O)c1ccc(-c2cnc3ncc(Cc4ccc5ncccc5c4)n3n2)cc1F [CAPMATINIB]

Structure (SMILES)	Kd [1]	Kd (Adenosine kinase)	Kd [2]	Kd [3]	Kd [4]	Kd [5]	Kd [6]	Kd [7]	Kd [8]	Kd [9]	Kd [10]
Cc1ccc(-n2nc(C(C)(C)C)cc2NC(=O)NCc2cc(F)ccc2Oc2ccc3c(cnn3CCO)c2)cc1 [PEXMETINIB]	0.351 µM (active)	> 30 µM (inactive)	> 30 µM (inactive)	> 30 µM (inactive)	> 30 µM (inactive)	0.067 µM (active)	> 30 µM (inactive)	> 30 µM (inactive)	> 30 µM (inactive)	> 30 µM (inactive)	> 30 µM (inactive)
